Results reported in patent US12421252B2, “Spiro (isobenzofuranazetidine) compounds for the treatment of autoimmune disease” (Hoffmann-La Roche Inc., priority 2020, dated 2025).

Experiments:
hERG channel = molecular target: T1, hERG channel (Homo sapiens, UniProt Q12809); assay: hERG channel inhibition assay (patch-clamp, CHO hERG cells); format: cell-based; conditions: for safety window (hERG IC20/TLR7/8/9 IC50, in words): compared to the compounds of this invention; for hERG IC20/TLR7 IC50 / hERG IC20/TLR9 IC50: safety ratio
T1 construct: expressed in transfected cells
T1 sequence (Q12809 whole entry): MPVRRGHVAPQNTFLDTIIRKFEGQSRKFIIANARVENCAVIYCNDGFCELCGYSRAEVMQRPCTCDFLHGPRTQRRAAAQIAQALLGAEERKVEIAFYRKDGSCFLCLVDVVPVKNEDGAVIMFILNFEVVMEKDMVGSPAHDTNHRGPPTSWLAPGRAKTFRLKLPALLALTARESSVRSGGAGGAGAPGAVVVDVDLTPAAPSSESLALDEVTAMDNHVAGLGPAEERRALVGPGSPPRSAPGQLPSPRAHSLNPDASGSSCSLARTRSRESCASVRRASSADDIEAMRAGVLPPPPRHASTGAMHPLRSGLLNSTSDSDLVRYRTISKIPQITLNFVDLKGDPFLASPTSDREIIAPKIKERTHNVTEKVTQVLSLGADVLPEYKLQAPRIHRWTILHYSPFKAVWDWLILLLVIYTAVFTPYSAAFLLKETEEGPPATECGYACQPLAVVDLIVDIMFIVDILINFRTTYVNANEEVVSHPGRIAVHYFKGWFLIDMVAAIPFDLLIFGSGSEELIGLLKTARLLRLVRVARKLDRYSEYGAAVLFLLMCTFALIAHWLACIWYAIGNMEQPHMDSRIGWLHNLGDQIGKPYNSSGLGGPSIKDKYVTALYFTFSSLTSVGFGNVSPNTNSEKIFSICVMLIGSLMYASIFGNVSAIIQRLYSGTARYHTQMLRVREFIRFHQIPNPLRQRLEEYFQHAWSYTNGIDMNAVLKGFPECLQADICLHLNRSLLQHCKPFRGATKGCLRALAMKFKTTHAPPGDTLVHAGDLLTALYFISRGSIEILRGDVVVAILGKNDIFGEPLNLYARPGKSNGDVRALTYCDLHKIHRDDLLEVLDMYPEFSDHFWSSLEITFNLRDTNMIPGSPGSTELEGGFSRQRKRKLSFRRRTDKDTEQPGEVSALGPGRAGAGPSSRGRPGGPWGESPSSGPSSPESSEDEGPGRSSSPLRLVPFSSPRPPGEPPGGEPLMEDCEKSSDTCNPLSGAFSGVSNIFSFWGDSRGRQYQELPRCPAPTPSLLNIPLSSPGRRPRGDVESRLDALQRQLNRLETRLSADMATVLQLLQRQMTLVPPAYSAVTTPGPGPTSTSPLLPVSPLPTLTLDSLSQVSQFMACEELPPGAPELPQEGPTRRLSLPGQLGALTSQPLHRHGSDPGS
Protocol: hERG Channel Inhibition Assay:
The hERG K+ channels were cloned in humans and stably expressed in a CHO (Chinese hamster ovary) cell line. CHOhERG cells were used for patch-clamp (voltage-clamp, whole-cell) experiments. Cells were stimulated by a voltage pattern to activate hERG channels and conduct IKhERG Currents (rapid delayed outward rectifier potassium current of the hERG channel). After the cells were stabilized for a few minutes, the amplitude and kinetics of IKhERG were recorded at a stimulation frequency of 0.1 Hz, (6 bpm). Thereafter, the test compound was added to the preparation at increasing concentrations. For each concentration, an attempt was made to reach a steady-state effect, usually, this was achieved within 3-10 min at which time the next highest concentration was applied. The amplitude and kinetics of IKhERG are recorded in each concentration of the drug which were compared to the control values (taken as 100%). (references: Redfern W S, Carlsson L, Davis A S, Lynch W G, MacKenzie I, Palethorpe S, Siegl P K, Strang I, Sullivan A T, Wallis R, Camm A J, Hammond T G. 2003; Relationships between preclinical cardiac electrophysiology, clinical QT interval prolongation and torsade de pointes for a broad range of drugs: evidence for a provisional safety margin in drug development. Cardiovasc. Res. 58:32-45, Sanguinetti M C, Tristani-Firouzi M. 2006; hERG potassium channels and cardiac arrhythmia. Nature 440:463-469, Webster R, Leishman D, Walker D. 2002; Towards a drug concentration effect relationship for QT prolongation and torsades de pointes. Curr. Opin. Drug Discov. Devel. 5:116-26).

hTLR9 = molecular target: T2, hTLR9 (Homo sapiens, UniProt Q9NR96); set-up: host or cells: HEK; conditions: data disclosed in US20150105370; read-out: HEK/hTLR9 IC50; cited from earlier work
T2 sequence (Q9NR96 26-1032): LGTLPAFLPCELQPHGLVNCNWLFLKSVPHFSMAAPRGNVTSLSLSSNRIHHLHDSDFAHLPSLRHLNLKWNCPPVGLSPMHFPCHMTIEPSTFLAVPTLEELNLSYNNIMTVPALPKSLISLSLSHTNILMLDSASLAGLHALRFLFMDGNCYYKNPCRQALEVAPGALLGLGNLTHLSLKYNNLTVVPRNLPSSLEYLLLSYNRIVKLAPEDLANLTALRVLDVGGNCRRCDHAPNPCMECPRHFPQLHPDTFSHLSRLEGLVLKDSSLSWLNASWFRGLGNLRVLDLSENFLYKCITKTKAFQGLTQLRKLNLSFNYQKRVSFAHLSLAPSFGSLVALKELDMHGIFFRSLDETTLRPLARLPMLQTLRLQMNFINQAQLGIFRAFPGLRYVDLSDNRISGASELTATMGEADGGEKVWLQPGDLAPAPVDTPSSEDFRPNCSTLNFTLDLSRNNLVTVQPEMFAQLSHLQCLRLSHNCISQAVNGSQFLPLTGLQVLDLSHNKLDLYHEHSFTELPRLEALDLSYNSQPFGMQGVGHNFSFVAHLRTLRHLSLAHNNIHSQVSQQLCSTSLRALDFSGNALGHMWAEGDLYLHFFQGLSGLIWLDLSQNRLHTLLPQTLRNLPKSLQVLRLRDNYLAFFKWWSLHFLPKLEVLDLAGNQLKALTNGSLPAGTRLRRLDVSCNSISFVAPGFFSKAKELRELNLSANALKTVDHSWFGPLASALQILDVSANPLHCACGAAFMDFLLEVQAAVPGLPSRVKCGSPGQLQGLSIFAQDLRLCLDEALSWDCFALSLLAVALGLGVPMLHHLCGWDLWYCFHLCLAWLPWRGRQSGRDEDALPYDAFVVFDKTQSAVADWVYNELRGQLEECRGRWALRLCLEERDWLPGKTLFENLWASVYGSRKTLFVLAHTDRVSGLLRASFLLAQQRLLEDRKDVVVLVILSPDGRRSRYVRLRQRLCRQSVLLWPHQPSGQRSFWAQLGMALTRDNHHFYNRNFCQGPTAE

CYP2C9 = molecular target: T3, CYP2C9 (Homo sapiens, UniProt P11712); assay: CYP inhibition assay in human liver microsome, CYP2C9; format: in vitro ADME; conditions: percentage inhibition, substrate Diclofenac 5 μM, <0: not or weak inhibitor
T3 construct: tissue BD-Gentest 452117; host or cells: human liver microsomes
T3 sequence (P11712 whole entry): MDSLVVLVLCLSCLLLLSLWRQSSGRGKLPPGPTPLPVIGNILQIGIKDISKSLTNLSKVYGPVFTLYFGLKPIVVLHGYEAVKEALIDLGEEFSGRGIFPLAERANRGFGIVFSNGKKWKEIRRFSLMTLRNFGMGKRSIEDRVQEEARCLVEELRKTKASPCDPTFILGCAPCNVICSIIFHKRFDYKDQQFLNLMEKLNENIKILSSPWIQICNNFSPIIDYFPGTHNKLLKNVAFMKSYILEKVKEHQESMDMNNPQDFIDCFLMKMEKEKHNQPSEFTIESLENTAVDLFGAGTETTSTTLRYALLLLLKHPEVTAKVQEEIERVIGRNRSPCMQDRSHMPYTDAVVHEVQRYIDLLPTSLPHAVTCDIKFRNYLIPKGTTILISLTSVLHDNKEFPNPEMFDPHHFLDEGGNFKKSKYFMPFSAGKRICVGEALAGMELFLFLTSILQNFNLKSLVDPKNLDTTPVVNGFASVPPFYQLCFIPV
Protocol: (§1) This is a high throughput screening assay used for assessment of reversible inhibition of CYP2C9, CYP2D6, and CYP3A4 activity of test compounds in human liver microsome (HLM) in early discovery stage.
(§2) Procedure 10 mM DMSO stock solutions of test compounds were diluted in DMSO to generate 2 mM intermediate stock solution. 250 nL of intermediate stock solution were transferred in duplicate into 3 separate 384 well microtitre plates (assay-ready plates). A mixture of HLM and each substrate was made up. 45 μL of HLM substrate mix was then transferred to each well of an assay ready plate and mixed. The negative (solvent) and positive controls (standard inhibitor for each CYP) were included in each assay ready plate. The assay ready plate was warmed to 37° C. in an incubator over 10 minutes. 5 μL pre-warmed NADPH regenerating system was added to each incubation well to start the reaction. Final incubation volume was 50 μL. The assay plate then was placed back in the 37° C. incubator. After incubation (10 minutes for CYP2D6) for 5 minutes, incubates were quenched by addition of 50 μL 100% acetonitrile containing internal standards (400 ng/mL 13C6-4′-OH-Diclofenac, 20 ng/mL D3-Dextrorphan and 20 ng/mL D4-1′OH-Midazolam). The supernatants were collected for RapidFire/MS/MS analysis.
(§3) RapidFire online solid phase extraction/sample injection system (Agilent) coupled with API4000 triple quadrupole mass spectrometer (AB Sciex) were used for sample analysis. The mobile phase composed of acetonitrile and water supplemented with 0.1% formic acid. A C4 solid phase extraction cartridge is used for sample separation. MS detection is achieved in positive ion MRM mode.
(§4) Data analysis Peak areas for substrate, metabolite and internal standard are determined using the RapidFire integrator software (version 3.6.12009.12296). Peak area ratios (PAR) of metabolite and internal standard (stable-labelled metabolite) are then calculated. The measurement window for each experiment is then defined: PAR (0% activity)=average PAR for all incubations containing concentrated inhibitor; Par (100% activity)=average PAR for all incubations containing no inhibitor (DMSO controls); % Activity (test inhibitor)=[PAR (test inhibitor)-PAR (0% activity)]/[PAR (100% activity)-PAR (0% activity)]; % Inhibition (test inhibitor)=100-% Activity (test inhibitor).

CYP2D6 = molecular target: T4, CYP2D6 (Homo sapiens, UniProt P10635); assay: CYP inhibition assay in human liver microsome, CYP2D6; format: in vitro ADME; conditions: percentage inhibition, substrate Dextromethorphan 5 μM, <0: not or weak inhibitor
T4 construct: tissue BD-Gentest 452117; host or cells: human liver microsomes
T4 sequence (P10635 whole entry): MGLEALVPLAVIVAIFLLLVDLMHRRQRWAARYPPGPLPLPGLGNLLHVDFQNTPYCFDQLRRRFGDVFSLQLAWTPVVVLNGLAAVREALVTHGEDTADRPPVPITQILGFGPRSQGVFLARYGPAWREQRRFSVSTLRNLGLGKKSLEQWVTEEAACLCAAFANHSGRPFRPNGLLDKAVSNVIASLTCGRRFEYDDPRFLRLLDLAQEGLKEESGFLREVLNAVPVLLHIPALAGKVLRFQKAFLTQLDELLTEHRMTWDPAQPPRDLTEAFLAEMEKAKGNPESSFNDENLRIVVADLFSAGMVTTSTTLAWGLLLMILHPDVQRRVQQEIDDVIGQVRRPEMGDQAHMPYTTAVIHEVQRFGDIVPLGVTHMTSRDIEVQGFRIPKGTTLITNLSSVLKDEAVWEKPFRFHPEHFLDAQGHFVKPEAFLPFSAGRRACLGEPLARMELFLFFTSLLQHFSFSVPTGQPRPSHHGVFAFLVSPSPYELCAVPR
Protocol: as §1, §2, §3, §4

CYP3A4 = molecular target: T5, CYP3A4 (Homo sapiens, UniProt P08684); assay: CYP inhibition assay in human liver microsome, CYP3A4; format: in vitro ADME; conditions: percentage inhibition, substrate Midazolam 5 μM, <0: not or weak inhibitor
T5 construct: tissue BD-Gentest 452117; host or cells: human liver microsomes
T5 sequence (P08684 whole entry): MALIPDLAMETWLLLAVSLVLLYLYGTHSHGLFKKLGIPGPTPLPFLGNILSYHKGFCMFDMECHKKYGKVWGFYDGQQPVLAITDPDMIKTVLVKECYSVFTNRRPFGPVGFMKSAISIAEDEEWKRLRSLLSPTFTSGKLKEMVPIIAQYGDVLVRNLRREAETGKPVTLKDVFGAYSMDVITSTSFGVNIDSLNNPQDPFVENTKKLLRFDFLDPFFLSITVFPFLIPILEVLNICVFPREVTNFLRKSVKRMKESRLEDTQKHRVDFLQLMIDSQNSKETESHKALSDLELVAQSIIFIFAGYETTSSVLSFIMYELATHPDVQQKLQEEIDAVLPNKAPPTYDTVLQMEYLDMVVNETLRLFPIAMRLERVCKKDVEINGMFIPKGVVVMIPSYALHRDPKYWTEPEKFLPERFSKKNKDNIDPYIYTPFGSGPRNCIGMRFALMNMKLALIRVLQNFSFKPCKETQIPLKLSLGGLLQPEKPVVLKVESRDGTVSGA
Protocol: as §1, §2, §3, §4

| CYP (%) 2C9 (CYP2C9) [%] | CYP (%) 2D6 (CYP2D6) [%] | CYP (%) 3A4 (CYP3A4) [%] | SMILES | safety window (hERG IC20/TLR7/8/9 IC50, in words) (hERG channel) | hERG IC20/TLR7 IC50 (hERG channel) | hERG IC20/TLR9 IC50 (hERG channel) | IC50 (hTLR9) [µM] |
| --- | --- | --- | --- | --- | --- | --- | --- |
|  |  |  | C[C@@H]1CN(c2ccc(C#N)c3ncccc23)C[C@H](CN2CCN(c3ccccn3)CC2)O1 [ER-888285, reference compound] | much narrower safety window | 8.4 | 0.5 | > 2 |
|  |  |  | C[C@@H]1CN(c2ccc(C#N)c3ncccc23)C[C@H](CN2CCN(c3ccccc3)CC2)O1 [ER-887258, reference compound] | much narrower safety window | 8.1 | 0.3 | > 2 |
| 29.5 | 52.5 | 5.5 | C[C@@H]1CN(c2ccc(C#N)c3ncccc23)C[C@H](CN2CCN(c3ccncc3)CC2)O1 [ER-888286, reference compound] | much narrower safety window | 0.3 | 0.2 | > 2 |
